Experimental findings from publication PMC9049071 (RSC Advances, 2020) are described below.

Test [1] has as its system endothelial human sapiens cell line EA.hy926. The experiment in a line: Activity against endothelial cell line EA.hy926. The class given is cell-based. Conditions: EA.hy 926, read-out: IC50 against EA.hy926.
The subject of test [2] is breast cancer cell line MCF-7. Kind of test: Activity against breast cancer cell line MCF-7. The class given is cell-based. Conditions: Homo sapiens, MCF7, read-out: IC50 against MCF-7.

As a reminder, the IC50 is the concentration at which inhibition is half-maximal. Consider `CCc1cc(=O)n2c(=O)/c(=C/c3ccc(-c4ccc(C)cc4)cc3)sc2n1` [Compound 15, (Z)-7-ethyl-2-((4′-methyl-[1,1′-biphenyl]-4-yl)methylene)-5H-thiazolo[3,2-a]pyrimidine-3,5(2H)-dione], for which the IC50 in test [1] and in test [2] was above 250 µM each time.
